Source: US9867809B2, “Encapsulated active ingredients for controlled enteric release” (Kemin Industries, Inc., priority 2015, dated 2018)

Experiments:
[1] = system: male Cobb×Cobb 500 broiler chickens; assay: Performance trial in broiler chickens; assay type: in vivo, chicken
Text: A chicken, broiler performance trial was completed to understand if granules with different in-vitro dissolution rates would perform differently in an animal model. […] Therefore two different granules were made, one with a fast dissolution, and one with a slow dissolution. […] The experiment used 72 cages of 10 male Cobb×Cobb 500 broiler chickens. The treatments were replicated in eighteen blocks where the four treatments were randomized within each block. All the treatments contained equal amount of zinc and treatments B, C and D had same amount of butyric acid. The diet given in Tables 5 and 6 was supplemented with the treatments in Table 4. The starter diet was fed day 0 to 14 and the grower diet was fed day 14 to 28. All diets were fed as non-pelleted mash feed. Bird weights and feed consumption by cage were recorded on Days 0, 14, 21, 28.

[2] = Butyric acid in intestinal contents and excreta of broilers by gas chromatography; assay type: in vivo, chicken; details: day 28, birds fed the supplemented diet
Protocol: On days 14 and 28, after weighing, 4 birds per cage were harvested. From each of the harvested birds, a 1 inch section from the beginning of the ileum was cut off and flash frozen. The remaining intestinal tract was cut into 3 sections (upper, middle and cecal), the intestinal contents for each section were pooled by cage, and frozen in liquid nitrogen. A sample of excreta was collected by cage and frozen.
The samples of the feed and intestinal contents were analyzed for butyric acid by gas chromatography.

[3] = after 28 days, supplement in basal diet, 153 ppm zinc

SMILES	Avg. Wt. [1, 3]	Feed Conversion [1, 3]	Feed Intake [1, 3]	butyric acid in the ileal contents [2]	Avg. Wt. ([1]; in vivo)	Feed Conversion ([1]; in vivo)	Feed Intake ([1]; in vivo)
CCCC(=O)[O-].CCCC(=O)[O-].[Zn+2] [ZBA Powder, zinc salt of butyric acid in a molar ratio of 1:2]	1.043 kg	1.589	11.06	no detectible butyric acid	–	–	–
O=S(=O)([O-])[O-].[Zn+2] [Zinc Sulfate Powder, Zinc Sulfate, reference compound]	–	–	–	–	1.010 kg	1.620	10.93
